Counter-ions that a name gives are not always drawn.

Experiment [1] has as its system Tyk2 kinase activity on STAT4. Nature of the experiment: pSTAT4 cell assay (MSD, NK92 cells). The class given is cell-based. Conditions: compounds 1 hr. Put shortly:
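IC50 values come from 4-parameter logistic fits of normalized percent activity. Phospho-STAT was read by MSD (anti-STAT4 antibodies) in NK92 lysates after a 15 min stimulation with 30 ng/mL IL2. The serum-starved cells had been given compound for 1 h (10 points, four-fold, top 10 μM).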

In experiment [2] the test system is JAK1 kinase activity on STAT3. The experiment can be described thus: pSTAT3 cell assay (MSD, TF1 cells, IL-6 stimulated). The class given is cell-based. The conditions noted are these: Homo sapiens, TF-1, compounds 1 hour, 30 ng/mL IL-6 for 15 minutes. On the procedure: The inhibitory potency of compounds of the disclosure against the JAK1 kinase activity on STAT3 was evaluated using an MSD-platform plate-based assay format. TF1 cells natively expressing STAT3 and JAK1 were serum-starved to reduce background phosphorylation levels, then cells were treated with compounds of the disclosure for 1 hour with a 10-point four-fold dilution series starting at 10 μM. Cells were then stimulated with 30 ng/mL interleukin 6 (IL-6) for 15 minutes. Cells were lysed and pSTAT3 levels were quantitated using an MSD plate-based assay with anti-STAT3 antibodies. The data were normalized and the percent activity versus log concentration of compound was fitted with a 4-parameter logistic model to generate IC50 curves.

For experiment [3], the system named is JAK2 kinase activity on STAT5. Nature of the experiment: pSTAT5 cell assay (MSD, TF1 cells, IL-3 stimulated). The class given is cell-based. Conditions: Homo sapiens, TF-1, compounds 1 hour, 30 ng/mL IL-3 for 15 minutes. The procedure: Compounds of the disclosure were assessed for their ability to inhibit the JAK2 kinase activity on STAT5 utilizing an MSD-platform plate-based assay format. TF1 cells natively expressing STAT5 and JAK2 were serum-starved to reduce background phosphorylation levels, then cells were treated with compounds of disclosure for 1 hour with a 10-point four-fold dilution series starting at 10 μM. Cells were then stimulated with 30 ng/mL IL-3 for 15 minutes. Cells were then lysed and pSTAT5 levels were quantitated using an MSD plate-based assay with anti-STAT5 antibodies. The data were normalized and the percent activity versus log concentration of compound was fitted with a 4-parameter logistic model to generate a curve and an IC50 value.

The target in a further experiment is T1, JH2 domain of human Tyk2 (Homo sapiens, UniProt P29597).
T1 construct: 10×His-tagged TYK2 JH2 domain (amino acid 575-876)
T1 sequence (P29597 575-876): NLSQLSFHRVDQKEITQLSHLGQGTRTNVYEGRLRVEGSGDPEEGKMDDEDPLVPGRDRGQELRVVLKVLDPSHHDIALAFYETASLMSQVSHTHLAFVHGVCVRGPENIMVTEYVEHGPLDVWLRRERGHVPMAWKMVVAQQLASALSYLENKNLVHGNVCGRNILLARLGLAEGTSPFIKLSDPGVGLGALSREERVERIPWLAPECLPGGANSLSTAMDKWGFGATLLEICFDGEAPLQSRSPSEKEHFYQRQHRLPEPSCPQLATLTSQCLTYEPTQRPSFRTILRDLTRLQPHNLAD
Nature of the experiment: JH2 biochemical assay (TR-FRET probe displacement). The class given is binding. An outline of the steps:
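A probe-displacement TR-FRET readout: compounds, tested in 3-fold, 10-point dilutions starting at […], compete with 2 nM tracer for 2 nM His-tagged JH2 (residues 575-876) detected by 0.1 nM Tb-anti-His over 60 min. IC50 comes from 4-parameter fits of normalized 520/495 nm ratios.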
(In general: Time-resolved FRET reads energy transfer from a long-lived donor to a nearby acceptor.)

In general, IC50 refers to the point on the concentration scale where inhibition reaches its midpoint. The low end stands for higher potency, the high end for lower potency. As for `CC(=O)Nc1cc2c(cn1)C(C)(C)CN2c1ccnc(C(C)(F)F)n1` [Example 38, N-(1-(2-(1,1-difluoroethyl)pyrimidin-4-yl)-3,3-dimethyl-2,3-dihydro-1H-pyrrolo[3,2-c]pyridin-6-yl)acetamide], the half-maximal inhibitory concentration (IC50) (in experiment [1] (stimulated 15 minutes); in experiment [2]; in experiment [3]; on JH2 domain of human Tyk2 (JH2 biochemical assay)) was not below 1000 nM each time.
With `CCC(=O)Nc1cc2c(cn1)C1(CC1)CN2c1cccc(C(C)(F)F)n1` [Example 90, N-(1′-(6-(1,1-difluoroethyl)pyridin-2-yl)-1′,2′-dihydrospiro[cyclopropane-1,3′-pyrrolo[3,2-c]pyridin]-6′-yl)propionamide], the IC50 is 10 to 100 nM in experiment [1] (stimulated 15 minutes), not below 1000 nM in experiment [2], not below 1000 nM in experiment [3] and not above 10 nM at JH2 domain of human Tyk2 (JH2 biochemical assay).
For `CC(=O)Nc1cc2c(cn1)C1(CCN(C)CC1)CN2c1nccc(C(C)(F)F)n1` [Example 274, N-(1′-(4-(1,1-difluoroethyl)pyrimidin-2-yl)-1-methyl-1′,2′-dihydrospiro[piperidine-4,3′-pyrrolo[3,2-c]pyridin]-6′-yl)acetamide trifluorocetate], the half-maximal inhibitory concentration (IC50) is not below 1000 nM in experiment [1] (stimulated 15 minutes), not below 1000 nM in experiment [2], not below 1000 nM in experiment [3] and 100 to 1000 nM at JH2 domain of human Tyk2 (JH2 biochemical assay).
Consider `CCn1cc(-c2cc(N3CC4(CC4)c4cnc(NC(C)=O)cc43)nc(C(C)(F)F)n2)cn1` [Example 384, N-(1′-(2-(1,1-difluoroethyl)-6-(1-ethyl-1H-pyrazol-4-yl)pyrimidin-4-yl)-1′,2′-dihydrospiro[cyclopropane-1,3′-pyrrolo[3,2-c]pyridin]-6′-yl)acetamide trifluoroacetate], for which the half-maximal inhibitory concentration (IC50) in experiment [1] (then stimulated 15 minutes) is 10 to 100 nM; in experiment [2], not below 1000 nM; in experiment [3] it was not below 1000 nM; on JH2 domain of human Tyk2 (TR-FRET probe displacement, JH2 domain of human Tyk2) it was not above 10 nM.
As to `CC(=O)Nc1cc2c(cn1)C1(CC1)CN2c1cccc(C2(O)CCOC2)n1` (stereo not shown) [Example 19, N-(1′-(6-(3-hydroxytetrahydrofuran-3-yl)pyridin-2-yl)-1′,2′-dihydrospiro[cyclopropane-1,3′-pyrrolo[3,2-c]pyridin]-6′-yl)acetamide], the 50% inhibitory concentration (IC50) is 10 to 100 nM in experiment [1] (stimulated 15 minutes), not below 1000 nM in experiment [2], not below 1000 nM in experiment [3] and not above 10 nM on JH2 domain of human Tyk2 (JH2 biochemical assay).
As to `CC(=O)Nc1cc2c(cn1)C1(CC1C)CN2c1ccnc(C(C)(F)F)n1` (stereo not shown) [Example 37, N-(1′-(2-(1,1-difluoroethyl)pyrimidin-4-yl)-2-methyl-1′,2′-dihydrospiro[cyclopropane-1,3′-pyrrolo[3,2-c]pyridin]-6′-yl)acetamide], the 50% inhibitory concentration (IC50) was not below 1000 nM in experiment [1] (stimulated 15 minutes), not below 1000 nM in experiment [2], not below 1000 nM in experiment [3] and 10 to 100 nM at JH2 domain of human Tyk2 (JH2 biochemical assay).
On to `CC(=O)Nc1cc2c(cn1)C1(CC1)CN2c1cc(C)nc(C(C)(F)F)n1` [Example 88, N-(1′-(2-(1,1-difluoroethyl)-6-methylpyrimidin-4-yl)-1′,2′-dihydrospiro[cyclopropane-1,3′-pyrrolo[3,2-c]pyridin]-6′-yl)acetamide], for which the half-inhibitory concentration (IC50) in experiment [1] (stimulated 15 minutes) is 10 to 100 nM; in experiment [2], not below 1000 nM; in experiment [3] it was not below 1000 nM; on JH2 domain of human Tyk2 (JH2 biochemical assay), not above 10 nM.
